Assay results taken from ChEMBL document CHEMBL5380809, “Discovery of Novel N-Hydroxy-1,2,4-oxadiazole-5-formamides as ASM Direct Inhibitors for the Treatment of Atherosclerosis” (J Med Chem, 2023).
Active and inactive are the calls of the source. No cut-off for these calls is given here.

Key:
[1] = system: HUVEC; test: Upregulation of intracellular sphingomyelin level in LPS-induced HUVEC cells measured after 22 hrs by ELISA method; format: functional, cell-based; details: Homo sapiens, dose <= 5.0 µM
[2] = system: Mus musculus; test: Antiatherosclerotic activity in high-fat diet fed ApoE-/- mouse assessed as reduction in plasma total triacylglycerol level at 12 to 40 mg/kg, ip bid measured after 8 weeks; format: functional, organism-based; details: dose 12-40 mg/kg
[3] = system: HUVEC; test: Downregulation of extracellular ceramide level in Ox-LDL-induced HUVEC cells upto 5 uM measured after 22 hrs by ELISA method; format: functional, cell-based; details: Homo sapiens
[4] = system: HUVEC; test: Upregulation of extracellular sphingomyelin level in HUVEC cells upto 5 uM measured after 22 hrs by ELISA method; format: functional, cell-based; details: Homo sapiens
[5] = AUC (0 to t) in ICR mouse at 10 mg/kg, po measured for 0.083 to 24 hrs by LC-MS/MS analysis; format: ADME, organism-based; set-up: time upper 24 hrs, time lower 0.083 hrs, dose 10 mg/kg, route po; details: in vivo
[6] = system: HUVEC; test: Downregulation of extracellular ceramide level in HUVEC cells upto 5 uM measured after 22 hrs by ELISA method; format: functional, cell-based; details: Homo sapiens
[7] = system: Mus musculus; test: Antiatherosclerotic activity in high-fat diet fed ApoE-/- mouse assessed as reduction in aortic arch lipid accumulation at 12 to 40 mg/kg, ip bid measured after 8 weeks; format: functional, organism-based; details: dose 12-40 mg/kg
[8] = MRT (0 to infinity) in ICR mouse at 1 mg/kg, iv measured for 0.083 to 24 hrs by LC-MS/MS analysis; format: ADME, organism-based; details: in vivo, time 0.083-24 hrs
[9] = system: Mus musculus; test: In vivo inhibition of aSMase in C57BL/6 mouse assessed as decrease in liver S1P level at 6 to 40 mg/kg, ip bid for 1 week by ELISA method; format: functional, organism-based; details: dose 6-40 mg/kg, time 1.0 weeks
[10] = system: HUVEC; test: Antiinflammatory activity against HUVEC cells assessed as decrease in LPS-induced IL-6 level measured after 22 hrs by ELISA method; format: functional, cell-based; details: Homo sapiens, dose 1-5 µM
[11] = target: T1, Sphingomyelin phosphodiesterase (Homo sapiens, UniProt P17405); test: Inhibition of recombinant human aSMase (62 to 628 residues) using HMU-PC as substrate incubated for 2 hrs by fluorescence based assay
T1 sequence (P17405 whole entry): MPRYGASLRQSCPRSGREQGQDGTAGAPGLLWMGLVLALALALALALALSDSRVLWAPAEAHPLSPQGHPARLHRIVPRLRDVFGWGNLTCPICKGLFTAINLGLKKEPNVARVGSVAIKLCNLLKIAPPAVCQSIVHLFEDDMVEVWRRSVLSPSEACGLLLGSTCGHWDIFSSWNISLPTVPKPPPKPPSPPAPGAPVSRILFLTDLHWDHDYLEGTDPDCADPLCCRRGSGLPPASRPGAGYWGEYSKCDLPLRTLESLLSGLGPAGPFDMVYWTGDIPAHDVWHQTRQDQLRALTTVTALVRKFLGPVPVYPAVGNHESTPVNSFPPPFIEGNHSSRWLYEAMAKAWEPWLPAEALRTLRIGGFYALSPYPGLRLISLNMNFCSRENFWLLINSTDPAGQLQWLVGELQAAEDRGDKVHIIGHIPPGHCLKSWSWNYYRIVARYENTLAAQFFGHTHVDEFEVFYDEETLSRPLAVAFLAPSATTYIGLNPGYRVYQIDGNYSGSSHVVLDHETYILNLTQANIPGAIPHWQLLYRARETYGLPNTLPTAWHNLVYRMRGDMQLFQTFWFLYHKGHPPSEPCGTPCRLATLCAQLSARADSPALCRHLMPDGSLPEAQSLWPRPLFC

[12] = system: HUVEC; test: Upregulation of intracellular sphingomyelin level in HUVEC cells measured after 22 hrs by ELISA method; format: functional, cell-based; details: Homo sapiens, dose <= 5.0 µM
[13] = system: HUVEC; test: Effect on extracellular S1P level in Ox-LDL-induced HUVEC cells upto 5 uM measured after 22 hrs by ELISA method; format: functional, cell-based; details: Homo sapiens
[14] = system: Mus musculus; test: In vivo inhibition of aSMase in C57BL/6 mouse assessed as decrease in liver ceramide level at 6 to 40 mg/kg, ip bid for 1 week by ELISA method; format: functional, organism-based; details: dose 6-40 mg/kg, time 1.0 weeks
[15] = system: HUVEC; test: Antiinflammatory activity against HUVEC cells assessed as decrease in Ox-LDL-induced IL-6 mRNA level at 5 uM measured after 22 hrs by RT-PCR analysis; format: functional, cell-based; details: Homo sapiens
[16] = system: HUVEC; test: Downregulation of extracellular ceramide level in LPS-induced HUVEC cells upto 5 uM measured after 22 hrs by ELISA method; format: functional, cell-based; details: Homo sapiens
[17] = Tmax in ICR mouse at 10 mg/kg, po measured for 0.083 to 24 hrs by LC-MS/MS analysis; format: ADME, organism-based; details: in vivo, time 0.083-24 hrs
[18] = Half life in ICR mouse at 10 mg/kg, po measured for 0.083 to 24 hrs by LC-MS/MS analysis; format: ADME, organism-based; details: in vivo, time 0.083-24 hrs
[19] = system: HUVEC; test: Upregulation of intracellular sphingomyelin level in Ox-LDL-induced HUVEC cells measured after 22 hrs by ELISA method; format: functional, cell-based; details: Homo sapiens, dose <= 5.0 µM
[20] = system: HUVEC; test: Upregulation of extracellular sphingomyelin level in Ox-LDL-induced HUVEC cells upto 5 uM measured after 22 hrs by ELISA method; format: functional, cell-based; details: Homo sapiens
[21] = system: HUVEC; test: Cytotoxicity against HUVEC cells assessed as cell growth inhibition at 0.5 to 20 uM incubated for 24 to 48 hrs by MTT assay; format: toxicity, cell-based; details: human, dose lower 0.5 µM, time lower 24 hrs, dose upper 20 µM, time upper 48 hrs
[22] = AUC (0 to infinity) in ICR mouse at 10 mg/kg, po measured for 0.083 to 24 hrs by LC-MS/MS analysis; format: ADME, organism-based; set-up: time lower 0.083 hrs, dose 10 mg/kg, time upper 24 hrs, route po; details: in vivo
[23] = In vivo inhibition of aSMase in C57BL/6 mouse assessed as decrease in liver aSMase level at 40 mg/kg, ip bid for 1 week by ELISA method relative to control; format: functional; set-up: scale not given: the % may be the effect or the level left; details: time 1 weeks
[24] = Oral bioavailability in ICR mouse at 10 mg/kg measured for 0.083 to 24 hrs by LC-MS/MS analysis; format: ADME, organism-based; details: in vivo, time 0.083-24 hrs
[25] = MRT (0 to infinity) in ICR mouse at 10 mg/kg, po measured for 0.083 to 24 hrs by LC-MS/MS analysis; format: ADME, organism-based; details: in vivo, time 0.083-24 hrs
[26] = system: HUVEC; test: Effect on extracellular S1P level in HUVEC cells upto 5 uM measured after 22 hrs by ELISA method; format: functional, cell-based; details: Homo sapiens
[27] = system: HUVEC; test: Downregulation of intracellular ceramide level in Ox-LDL-induced HUVEC cells at 5 uM measured after 22 hrs by ELISA method; format: functional, cell-based; details: Homo sapiens
[28] = AUC (0 to t) in ICR mouse at 1 mg/kg, iv measured for 0.083 to 24 hrs by LC-MS/MS analysis; format: ADME, organism-based; set-up: time 0.083-24 hrs, dose 1 mg/kg, route iv; details: in vivo
[29] = system: Mus musculus; test: Antiatherosclerotic activity in high-fat diet fed ApoE-/- mouse assessed as reduction in plasma ceramide level administered intraperitoneally twice daily measured after 8 weeks by ELISA method; format: functional, organism-based; details: dose 12-40 mg/kg, route ip
[30] = AUC (0 to infinity ) in ICR mouse at 1 mg/kg, iv measured for 0.083 to 24 hrs by LC-MS/MS analysis; format: ADME, organism-based; set-up: time upper 24 hrs, time lower 0.083 hrs, dose 1 mg/kg, route iv; details: in vivo
[31] = Tmax in ICR mouse at 1 mg/kg, iv measured for 0.083 to 24 hrs by LC-MS/MS analysis; format: ADME, organism-based; details: in vivo, time 0.083-24 hrs
[32] = system: HUVEC; test: Downregulation of intracellular ceramide level in HUVEC cells at 5 uM measured after 22 hrs by ELISA method; format: functional, cell-based; details: Homo sapiens

## O=C(NO)c1nc(-c2ccc(COc3ccc(Br)cc3)cc2)no1
[1]
  Activity: Dose-Dependent Effect
[2]
  Activity: inactive
[3]
  Activity: Active
[4]
  Activity: Active
[5]
  AUC(0-t): 805 ng·h/mL
[6]
  Activity: Active
[7]
  Activity: Active
[8]
  MRT inf: 5.22 min
[9]
  Activity: Active
[10]
  Activity: Dose-Dependent Effect
[11]
  IC50: 1500 nM
[12]
  Activity: Dose-Dependent Effect
[13]
  Activity: inactive
[14]
  Activity: Active
[15]
  Activity: Active
[16]
  Activity: Active
[17]
  Tmax: 4.98 min
[18]
  half-life: 49.8 min
[19]
  Activity: Dose-Dependent Effect
[20]
  Activity: Active
[21]
  Activity: Non-Toxic
[22]
  AUC(0-inf): 809 ng·h/mL
[23]
  Activity: 22%
[24]
  bioavailability: 35.4%
[25]
  MRT inf: 21 min
[26]
  Activity: inactive
[27]
  Activity: Active
[28]
  AUC(0-t): 227 ng·h/mL
[29]
  Activity: Dose-Dependent Effect
[30]
  AUC(0-inf): 228 ng·h/mL
[31]
  Tmax: 4.98 min
[32]
  Activity: Active
